Tests used:
[1] = system: Pseudomonas aeruginosa (DSMZ#939); test: Minimum Inhibitory Concentration (MIC) test and synergy index (Kull method), TSB pH 5; assay type: cell-based; settings: DSM 939 / DSMZ939, Pseudomonas aeruginosa DSM# 939, 30° C., 48 hours, read-out: MIC results for single biocides
Method: (§1) The synergism of the biocides combination of the present invention was determined using the Minimum Inhibitory (MIC) test method described by Kull, F. C., et. al in Applied Microbiology 9:538-541 (1961). The formula to calculate the synergy index (SI) is SI=Qa/QA+Qb/QB Where • QA=minimum inhibitory concentration in ppm of compound A acting alone • Qa=minimum inhibitory concentration in ppm of compound A in the mixture. • QB=minimum inhibitory concentration in ppm of compound B acting alone. • Qb=minimum inhibitory concentration in ppm of compound B in the mixture. […] The Minimum Inhibitory Concentration Test (MIC) is designed to evaluate the lowest concentration of a biocide, biocide blend or biocide combination to prevent bacteria growing in a defined broth. […] The synergy testing was carried out as follows: • 1. The test was executed with a Hamilton MLStarPlus robot using automated turbidity reading with BioTek Synergy H4 plate reader. • 2. […] Reading of the results was carried out by measuring absorbance at 600 nm for each sample at the beginning of the test (tzero) and after incubation (tendpoint). tendpoint was chosen at 48 hours for bacteria and 72 hours for yeast. The difference in absorbance between tendpoint and tzero was used to determine growth (Δ>0.2) or no growth (Δ≤0.2).

[2] = system: Candida albicans (DSMZ#1386); test: as above; assay type: cell-based; settings: DSM 1386 / DSMZ1386, Candida albicans DSM# 1386, 30° C., 72 hours, read-out: MIC results for single biocides
Method: as §1

| SMILES | MIC [1] | MIC [2] |
| --- | --- | --- |
| CCCCCCCCCCCCN(CCCN)CCCN [BDA, bis-(3-aminopropyl)dodecylamine] | 200 µg/mL | ≥ 260 µg/mL |
| C/C=C/C=C/C(=O)O [SA, sorbic acid] | 1230 µg/mL | 725 µg/mL |
